According to US9763908B2, “Composition containing monoacetyldiglyceride compound as active ingredient for preventing or treating atopic dermatitis” (ENZYCHEM LIFESCIENCES CORPORATION, priority 2013, dated 2017):

Assays:
IL-4 [1] = test: IL-4 level in serum (ELISA) of mice with DNCB-induced atopic dermatitis after oral EC-18; assay type: in vivo, mouse
Method: (§1) DNCB (1-Chloro-2,4-dinitrobenzene, Sigma Aldrich) was diluted to 0.2% by the solvent in which olive oil and acetone were mixed in a ratio of 1:4. Diluted DNCB was applied onto back of each 7-week-old Balb/c mouse whose hairs on back were removed. During the first week application was made seven times continuously, and from the second week, application was made every two days to induce atopy.
A mixture of EC-18 and olive oil was orally administrated to the mouse 7 times during the first week by 100 μl each time in dose of 2 mq/rat, and after then, for 11 times, was administered orally by 100 μl each time in dose of 1 mg/rat, that is the mixture was orally administrated totally 18 times. For the measurement of IL-4, blood was collected from veins under the eyes of mice treated, through ocular blood (Eye bleeding) method. […] After collecting the blood of about 350 μl in the EP tube, the blood was centrifuged to separate only serum and IL-4 present in the serum was analyzed by ELISA (enzyme-linked immunosorbent assay) method. […] When the color development is completed, the stop solution (2N H2SO4+DW) was dispensed by 100 μl, and the amount of color development at 450 nm wavelength was measured at ELISA Reader. […]

IgE = IgE level in serum (ELISA) of mice with DNCB-induced atopic dermatitis after oral EC-18; assay type: in vivo, mouse
Method: as §1
Using the serum separated from the mouse blood, was measured the expression levels of IgE in the ELISA method as shown in Experimental Example 1. In IgE ELISA for the mouse, IgE capture antibody (BD bioscience) was diluted with 1×PBS to 2 μg/ml, dispensed to each of 96-well plate (Thermo) by 200 μl, coated for 12 hours, washed using a wash buffer in which 0.05% tween 20 was diluted in 1×PBS. After washing three times, 1% BSA was dispensed to each well by 200 μl and blocking buffer was placed for 1 hour at room temperature (RT) conditions, and then final washing was performed._Thereafter, the serum obtained from the mice was dispensed to each well by 100 μl, and the wells were placed for reaction at room temperature for 1 hours after dispensing, and unreacted IgE is washed under the same conditions. […] When the color development is completed, the stop solution (2N H2SO4+DW) was dispensed by 50 μl, and the amount of color development at 450 nm wavelength was measured. […]

[2] = tested on: DNCB-induced atopic dermatitis in Balb/c mouse; test: Visual inspection of the degree of atopic disease in the DNCB-induced mouse model; assay type: in vivo; details: score 0 to 12
Method: as §1
Atopic disease models commonly used in the laboratory is a technique that induces contact Hypersensitivity (CHS) by sensitization to DNCB (1-Chloro-2,4-dinitro-benzene). This technique is a technique of inducing atopic by diluting DNCB with a solvent in which acetone and olive oil are mixed in a ratio of 4:1 to be 0.2%, and then smearing the diluted on the skin, and is for the experiment for adjusting and maintaining the expression time so that artificially severe atopy-like appearance appears could be observed two weeks after the smearing. The degree of atopic disease was evaluated by dividing the state of erythema/emorrhage, scarring/dryness, edema), excoriation/erosion which are induced on the skin, respectively into three steps (0=null, 1=mild, 2=moderate, 3=severe) and then assigning the score up to 12 from zero. It was induced in the experimental group and the control group that the time when severe atopic status ((visual inspection index of 10) is reached was two weeks after the smearing of DNCB. Further, in order to maintain this condition, after two weeks, DNCB smearing was performed every two days.
FIG. 4 is a photograph showing the degree of atopic disease for 3 weeks in mice of the EC-18 administration group (test group) and the mice of olive oil administration group (control group). […] In contrast, in the test group the administration of EC-18, visual inspection index was changed to 1 point after one week, 8 points after two weeks and 3 points after three weeks.

IL-4 [3] = test: IL-4 from ConA-activated lymphocytes of normal healthy people given EC-18 for four weeks (ELISA); assay type: in vivo, human
Method: (§2) EC-18 was administered to the normal healthy people (36 people) four weeks. EC-18 Lymphocytes separated from the blood before administration and after administration were incubated with ConA (concanavalin A). In order to measure the cytokine (IFN-γ and IL-4) which is separated from the lymphocyte (T cell) activated by Con A, culture medium was incubated for 42 hours, and were stored frozen. Purified antibody (capture antibody) of cytokine to be measured was dispensed to well (Nunc-immuno module, polysorp) by 0.2 μg/well, and left overnight at 4° C. to coat antigen. After well washing, blocking buffer (1% bovine serum albumin) treatment was performed for about 1 hour to inhibit the nonspecific binding. After washing the well, a cell culture solution was placed into each well and the antibody was combined with coating antigen for 2 hours. […] After approximately 10-30 minutes, stop solution was added into the well and absorbance at 450-570 nm was measured with Automatic Microplate reader (Molecular Devices, CA, USA). In the same manner, absorbance according to cytokine solution concentration was measured to plot standard curve, and the amount of cytokine contained in the sample was calculated by substituting the absorbance of the sample group. The change amount of cytokine calculated in this manner and significance (P<0.05) were shown in flowing Table 1 and FIGS. 5-6.

IFN-γ = IFN-γ from ConA-activated lymphocytes of normal healthy people given EC-18 for four weeks (ELISA); assay type: in vivo, human
Method: as §2

[4] = tested on: atopic symptoms in patients; test: Observation of atopic symptom alleviation in patients with atopic; assay type: in vivo, human; details: 500 mg/day; 2 weeks (severe symptoms) or 2 days (mild skin rash); FIGS. 7 and 8
Method: To patients with severe atopic symptoms, the EC-18 was administrated every day at a dose of 500 mg/day for 2 weeks and atopic symptoms change which was taken were shown in FIG. 7. To a patient having a mild skin rash, the EC-18 was administrated every day at a dose of 500 mg/day for 2 days and atopic symptoms change which was taken were shown in FIG. 8.

sepsis animal model = details: cecal-ligation-puncture sepsis model; stated as known; cited from earlier work
[5] = GLP toxicity test; stated as known; cited from earlier work
[6] = DNCB-induced atopic dermatitis model animals

SMILES: CCCCC/C=C\C/C=C\CCCCCCCC(=O)OC(COC(C)=O)COC(=O)CCCCCCCCCCCCCCC (centres unmarked) [EC-18, 1-palmitoyl-2-linoleoyl-3-acetylglycerol]
- IL-4 level compared to the untreated group (olive oil treatment group), in words (IL-4 [1]; [6]): significantly decreased
- reduction of IL-4 level (IL-4 [1]; serum, two weeks vs one week after administration, oral EC-18 in olive oil, olive oil control approximately 50%): 80%
- IgE level compared to the untreated group (olive oil treatment group), in words (IgE; [6]): significantly decreased
- reduction of IgE level (IgE; serum, two weeks vs one week after administration, oral EC-18, olive oil control approximately 22%): about 50%
- visual inspection index ([2]; after one week, olive oil control 3 points): 1 point
- visual inspection index ([2]; after three weeks, olive oil control 6 points): 3 points
- visual inspection index ([2]; after two weeks, olive oil control 10 points): 8 points
- IL-4 after EC-18 administration (IL-4 [3]; N = 36, four weeks of administration, before administration 246.6 ± 186.9, P <0.001): 96.1 ± 64.2 pg/mL
- expression level of Th2 cytokine (IL-4), in words (IL-4 [3]; normal subjects, 4 weeks, FIG. 5): reduced the expression levels of Th2 cytokine (IL-4)
- IFN-γ after EC-18 administration (IFN-γ; N = 36, four weeks of administration, before administration 686.4 ± 162.2, P 0.473): 611.9 ± 209.7 pg/mL
- expression level of Th1 cytokine (IFN-γ), in words (IFN-γ; normal subjects, 4 weeks, FIG. 6): the change did not occur uniformly
- atopic symptoms change [4]: the atopic symptoms are relaxed
- survivability ratio of animals (sepsis animal model): increases survivability ratio of animals
- toxicity [5]: no-toxicity
